Test results: US11168079B2, “Alkene compounds as farnesoid x receptor modulators” (BRISTOL-MYERS SQUIBB COMPANY, priority 2017, dated 2021)

Biological target: T1, human FXR (Homo sapiens, UniProt Q96RI1)
T1 sequence (Q96RI1 262-486 limits assumed): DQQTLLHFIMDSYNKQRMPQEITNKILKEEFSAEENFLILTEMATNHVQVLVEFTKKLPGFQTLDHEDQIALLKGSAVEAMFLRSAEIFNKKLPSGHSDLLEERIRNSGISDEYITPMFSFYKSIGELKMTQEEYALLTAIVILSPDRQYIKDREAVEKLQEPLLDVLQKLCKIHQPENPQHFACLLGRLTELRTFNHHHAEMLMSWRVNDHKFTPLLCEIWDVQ
Assay: transient human FXR/Gal4-luciferase reporter assay (HLE GAL-FXR)
Conditions: FXR EC50 (nM), Gal4-hFXR fusion reporter, HEK293 cells; Table 1
Experimental: A Gal4-hFXR fusion construct reporter system was used as the primary assay to characterize compound activity. A construct including 5 copies of the Gal4 promoter response element upstream of a firefly luciferase reporter cDNA was stably expressed in HEK293 cells. This reporter cell line was maintained in Dulbecco's Modified Eagle's medium (DMEM; Gibco) supplemented with 1% penicillin-streptomycin (P/S) solution, 500 μg/mL Zeocin and 10% charcoal/dextran-treated fetal bovine serum (cs-FBS) at 37° C. in a humidified 5% CO2 atmosphere. Another plasmid was constructed in which the human cytomegalovirus promoter in the pcDNA3.1 vector directs the expression of the cDNA encoding a fusion protein comprised of the DNA binding domain from the Gal4 transcription factor fused to the ligand binding domain from human FXR.
For compound testing, 100 nL of the compounds (serial dilutions in DMSO) are dispensed with an Echo acoustic dispenser (Labcyte) into the wells of a Corning/Costar clear bottom 384-well white plate. The transfected cells are harvested, counted, and diluted such that 10-25,000 cells in 25 μL are plated into each well of the 384-well compound assay plate. The compound-treated cells are incubated overnight at 37° C. in a humidified 5% CO2 atmosphere. The next morning 25 μL of Steady-Glo (Promega) are added to each well of the plate, the mixture is incubated for 15 min. with shaking, and luminescence is measured on an Envision (Perkin Elmer) plate reader.

| Compound | EC50 |
| --- | --- |
| Clc1cccc(Cl)c1-c1noc(C2CC2)c1/C=C/C1CCN(c2ccc(-c3nn[nH]n3)cn2)CC1 [Example 64] | 30 nM |
| O=C(O)c1cc2ccc(N3CC4C(/C=C/c5c(-c6c(Cl)cccc6Cl)noc5C5CC5)C4C3)cc2nn1 (stereo not drawn) [Example 66] | 227 nM |
| O=C(O)c1cc2ccc(N3CCC(/C=C/c4c(-c5ccccc5OC(F)(F)F)noc4C4CC4)CC3)cc2nn1 [Example 67] | 1210 nM |
| O=C(O)c1cc(C(F)(F)F)c2cc(N3CC4C(/C=C/c5c(-c6c(Cl)cncc6Cl)noc5C5CC5)C4C3)ccc2n1 (stereo not drawn) [Example 72] | 98 nM |
| O=C(O)c1cc2ccc(N3CC4C(/C=C/c5c(-c6c(Cl)cncc6Cl)noc5C5CC5)C4C3)cc2cn1 (stereo not drawn) [Example 73] | 673 nM |
| O=C(O)c1cc2ccc(N3CC4C(/C=C/c5c(-c6ccccc6C(F)(F)F)noc5C5CC5)C4C3)cc2cn1 (stereo not drawn) [Example 76] | 413 nM |
| O=C(O)c1cc(F)c2nc(N3CC4C(/C=C/c5c(-c6c(Cl)cncc6Cl)noc5C5CC5)C4C3)sc2c1 (stereo not drawn) [Example 77] | 786 nM |
| COc1cc(C(=O)O)nc2ccc(N3CC4C(/C=C/c5c(-c6c(Cl)cncc6Cl)noc5C5CC5)C4C3)cc12 (stereo not drawn) [Example 80] | 38 nM |
| O=C(O)c1cc(C(F)(F)F)c2cc(N3CCC(/C=C/c4c(-c5ccncc5Cl)noc4C4CC4)CC3)ccc2n1 [Example 84] | 215 nM |
| O=C(O)c1ccc2nc(N3CCC(/C=C/c4c(-c5c(Cl)cncc5Cl)noc4C4CC4)CC3)sc2n1 [Example 85] | 156 nM |
| O=C(O)c1cnc(N2CC3C(/C=C/c4c(-c5c(Cl)cccc5Cl)noc4C4CC4)C3C2)s1 (stereo not drawn) [Example 86] | 1010 nM |
| O=C(O)c1ccc2nc(N3CCC(/C=C/c4c(-c5ccccc5C(F)(F)F)noc4C4CC4)CC3)sc2n1 [Example 87] | 26 nM |
| O=C(O)c1cc(OC(F)F)c2cc(N3CC4C(/C=C/c5c(-c6c(Cl)cncc6Cl)noc5C5CC5)C4C3)ccc2n1 (stereo not drawn) [Example 91] | 4 nM |
| O=C(O)c1cc(OC(F)F)c2cc(N3CCC(/C=C/c4c(-c5cccnc5C(F)(F)F)noc4C4CC4)CC3)ccc2n1 [Example 98] | 3 nM |
| O=C(O)c1ccc(N2CC3C(/C=C/c4c(-c5c(Cl)cncc5Cl)noc4C4CC4)C3C2)nc1 (stereo not drawn) [Example 102] | 1270 nM |
| O=C(O)c1cc2ccc(N3CCC(/C=C/c4c(-c5cccnc5C(F)(F)F)noc4C4CC4)CC3)cc2cn1 [Example 103] | 189 nM |
| O=C(O)c1nccc2cc(N3CCC(/C=C/c4c(-c5c(Cl)cncc5Cl)noc4C4CC4)CC3)ccc12 [Example 104] | 219 nM |
| O=C(O)c1nccc2cc(N3CC4C(/C=C/c5c(-c6c(Cl)cncc6Cl)noc5C5CC5)C4C3)ccc12 (stereo not drawn) [Example 105] | 310 nM |
| O=C(O)c1nccc2cc(N3CCC(/C=C/c4c(-c5ccccc5OC(F)(F)F)noc4C4CC4)CC3)ccc12 [Example 106] | 330 nM |
| O=C(O)c1cc2ccc(N3CCC(/C=C/c4c(-c5ncccc5C(F)(F)F)noc4C4CC4)CC3)cc2cn1 [Example 115] | 112 nM |
| O=C(O)c1cc(OC2CCOC2)c2cc(N3CC4C(/C=C/c5c(-c6c(Cl)cncc6Cl)noc5C5CC5)C4C3)ccc2n1 (stereo not drawn) [Example 120] | 18 nM |
| COc1cc(C(=O)O)nc2ccc(N3CCC(/C=C/c4c(-c5ncccc5C(F)(F)F)noc4C4CC4)CC3)cc12 [Example 125] | 14 nM |
| O=C(O)c1cc(OC2COC2)c2cc(N3CC4C(/C=C/c5c(-c6c(Cl)cncc6Cl)noc5C5CC5)C4C3)ccc2n1 (stereo not drawn) [Example 126] | 18 nM |

Next, values leading:

| EC50 | Compound |
| --- | --- |
| 189 nM | Clc1cccc(Cl)c1-c1noc(C2CC2)c1/C=C/C1C2CN(c3ccc4nc(-c5nnn[nH]5)ccc4c3)CC12 (stereo not drawn) [Example 65] |
| 17 nM | Cn1cc(C(=O)O)c2ccc(N3CC4C(/C=C/c5c(-c6c(Cl)cccc6Cl)noc5C5CC5)C4C3)cc21 (stereo not drawn) [Example 68] |
| 31 nM | O=C(O)c1cnc2cc(N3CCC(/C=C/c4c(-c5c(Cl)cccc5Cl)noc4C4CC4)CC3)ccc2c1 [Example 69] |
| 577 nM | O=C(O)c1cc(C(F)(F)F)c2cc(N3CC4C(/C=C/c5c(-c6ccccc6C(F)(F)F)noc5C5CC5)C4C3)ccc2n1 (stereo not drawn) [Example 75] |
| 515 nM | O=C(O)c1ccc2nc(N3CC4C(/C=C/c5c(-c6c(Cl)cncc6Cl)noc5C5CC5)C4C3)sc2c1 (stereo not drawn) [Example 78] |
| 1160 nM | O=C(O)c1ccc2nc(N3CC4C(/C=C/c5c(-c6c(Cl)cncc6Cl)noc5C5CC5)C4C3)ccc2c1 (stereo not drawn) [Example 79] |
| 89 nM | O=C(O)c1ccc2nc(N3CC4C(/C=C/c5c(-c6c(Cl)cccc6Cl)noc5C5CC5)C4C3)sc2n1 (stereo not drawn) [Example 81] |
| 267 nM | O=C(O)c1ccc2cc(N3CC4C(/C=C/c5c(-c6c(Cl)cncc6Cl)noc5C5CC5)C4C3)ccc2n1 (stereo not drawn) [Example 82] |
| 42 nM | O=C(O)c1cc(C(F)(F)F)c2cc(N3CCC(/C=C/c4c(-c5c(Cl)cncc5Cl)noc4C4CC4)CC3)ccc2n1 [Example 83] |
| 5 nM | COc1cc(C(=O)O)nc2ccc(N3CCC(/C=C/c4c(-c5c(Cl)cncc5Cl)noc4C4CC4)CC3)cc12 [Example 88] |
| 31 nM | Cn1cc(C(=O)O)c2ccc(N3CC4C(/C=C/c5c(-c6c(Cl)cncc6Cl)noc5C5CC5)C4C3)cc21 (stereo not drawn) [Example 89] |
| 3 nM | O=C(O)c1cc(OC(F)F)c2cc(N3CCC(/C=C/c4c(-c5c(Cl)cncc5Cl)noc4C4CC4)CC3)ccc2n1 [Example 92] |
| 280 nM | O=C(O)c1cccc2nc(N3CC4C(/C=C/c5c(-c6c(Cl)cncc6Cl)noc5C5CC5)C4C3)sc12 (stereo not drawn) [Example 93] |
| 108 nM | O=C(O)c1nsc2cc(N3CC4C(/C=C/c5c(-c6c(Cl)cncc6Cl)noc5C5CC5)C4C3)ccc12 (stereo not drawn) [Example 95] |
| 66 nM | O=C(O)c1ccc(N2CC3C(/C=C/c4c(-c5c(Cl)cncc5Cl)noc4C4CC4)C3C2)cc1 (stereo not drawn) [Example 96] |
| 3 nM | O=C(O)c1cc(OC(F)F)c2cc(N3CCC(/C=C/c4c(-c5ccccc5C(F)(F)F)noc4C4CC4)CC3)ccc2n1 [Example 99] |
| 4 nM | COc1cc(C(=O)O)nc2ccc(N3CCC(/C=C/c4c(-c5ccccc5C(F)(F)F)noc4C4CC4)CC3)cc12 [Example 100] |

| EC50 | Compound |
| --- | --- |
| 472 nM | O=C(O)c1nc2ccc(N3CC4C(/C=C/c5c(-c6c(Cl)cncc6Cl)noc5C5CC5)C4C3)cc2s1 (stereo not drawn) [Example 107] |
| 22 nM | CC(C)Oc1cc(C(=O)O)nc2ccc(N3CCC(/C=C/c4c(-c5ccccc5OC(F)(F)F)noc4C4CC4)CC3)cc12 [Example 108] |
| 25 nM | CC(C)Oc1cc(C(=O)O)nc2ccc(N3CC4C(/C=C/c5c(-c6c(Cl)cncc6Cl)noc5C5CC5)C4C3)cc12 (stereo not drawn) [Example 109] |
| 5 nM | CC(C)Oc1cc(C(=O)O)nc2ccc(N3CCC(/C=C/c4c(-c5ccncc5C(F)(F)F)noc4C4CC4)CC3)cc12 [Example 110] |
| 155 nM | Cc1cc(C(=O)O)nc2sc(N3CCC(/C=C/c4c(-c5c(Cl)cncc5Cl)noc4C4CC4)CC3)nc12 [Example 112] |
| 154 nM | COCCOc1cc(C(=O)O)nc2ccc(N3CC4C(/C=C/c5c(-c6c(Cl)cncc6Cl)noc5C5CC5)C4C3)cc12 (stereo not drawn) [Example 113] |
| 131 nM | COc1cc(C(=O)O)cc2sc(N3CC4C(/C=C/c5c(-c6c(Cl)cncc6Cl)noc5C5CC5)C4C3)nc12 (stereo not drawn) [Example 114] |
| 494 nM | O=C(O)c1cccc(-c2nc(N3CC4C(/C=C/c5c(-c6c(Cl)cncc6Cl)noc5C5CC5)C4C3)no2)c1 (stereo not drawn) [Example 117] |
| 276 nM | O=C(O)c1cnn2cc(N3CCC(/C=C/c4c(-c5ccccc5OC(F)(F)F)noc4C4CC4)CC3)ccc12 [Example 118] |
| 96 nM | Cc1nc(C(=O)O)cc2ccc(N3CCC(/C=C/c4c(-c5ccccc5OC(F)(F)F)noc4C4CC4)CC3)cc12 [Example 119] |
| 824 nM | O=C(O)c1ccc(N2CC3C(/C=C/c4c(-c5c(Cl)cncc5Cl)noc4C4CC4)C3C2)c2ncccc12 (stereo not drawn) [Example 121] |
| 126 nM | COc1nc(C(=O)O)cc2ccc(N3CC4C(/C=C/c5c(-c6c(Cl)cncc6Cl)noc5C5CC5)C4C3)cc12 (stereo not drawn) [Example 122] |
| 206 nM | O=C(O)c1cc(-c2nc(N3CC4C(/C=C/c5c(-c6c(Cl)cncc6Cl)noc5C5CC5)C4C3)no2)cc(C(F)(F)F)c1 (stereo not drawn) [Example 123] |
| 284 nM | COc1cc(C(=O)O)nc2sc(N3CC4C(/C=C/c5c(-c6c(Cl)cncc6Cl)noc5C5CC5)C4C3)nc12 (stereo not drawn) [Example 124] |
| 30 nM | O=C(O)c1cc(O[C@@H]2CCOC2)c2cc(N3CC4C(/C=C/c5c(-c6c(Cl)cncc6Cl)noc5C5CC5)C4C3)ccc2n1 (stereo partly drawn) [Example 127] |
| 27 nM | O=C(O)c1cc(O[C@H]2CCOC2)c2cc(N3CC4C(/C=C/c5c(-c6c(Cl)cncc6Cl)noc5C5CC5)C4C3)ccc2n1 (stereo partly drawn) [Example 128] |

Same assay, conditions: HLE GAL-FXR EC50, Gal4-hFXR fusion reporter, HEK293 cells

| EC50 | Compound |
| --- | --- |
| 377 nM | NC(=O)c1ccc(N2CC3C(/C=C/c4c(-c5c(Cl)cccc5Cl)noc4C4CC4)C3C2)cc1 (stereo not drawn) [Example 70, (E)-4-(6-(2-(5-Cyclopropyl-3-(2,6-dichlorophenyl)isoxazol-4-yl)vinyl)-3-azabicyclo[3.1.0]hexan-3-yl)benzamide] |
| 83 nM | CS(=O)(=O)NC(=O)c1ccc(N2CC3C(/C=C/c4c(-c5c(Cl)cccc5Cl)noc4C4CC4)C3C2)cc1 (stereo not drawn) [Example 71, (E)-4-(6-(2-(5-Cyclopropyl-3-(2,6-dichlorophenyl)isoxazol-4-yl)vinyl)-3-azabicyclo[3.1.0]hexan-3-yl)-N-(methylsulfonyl)benzamide] |
| 862 nM | O=C(O)c1ccc(-c2nc(N3CC4C(/C=C/c5c(-c6c(Cl)cncc6Cl)noc5C5CC5)C4C3)no2)cc1 (stereo not drawn) [Example 116, (E)-4-(3-(6-(2-(5-Cyclopropyl-3-(3,5-dichloropyridin-4-yl)isoxazol-4-yl)vinyl)-3-azabicyclo[3.1.0]hexan-3-yl)-1,2,4-oxadiazol-5-yl)benzoic acid] |

Same assay, conditions: read-out: FXR EC50; Gal4-hFXR fusion reporter, HEK293 cells; Table 1

| EC50 | Compound |
| --- | --- |
| 38 nM | Cc1cc(C(=O)O)nc2ccc(N3CC4C(/C=C/c5c(-c6c(Cl)cncc6Cl)noc5C5CC5)C4C3)cc12 (stereo not drawn) [Example 111] |
